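Briefly, cells in 96-well plates were exposed to five compound concentrations for 48 h, and endpoints were estimated by linear interpolation. GI50: concentration for 50% inhibition of growth.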 Active and inactive are the calls of the source. Cut-off read from the data, not from the text of the source: active = GI50 up to about 1.1 µM and inactive = higher.
How the values were obtained:
Assay in all cases: inhibition of tumour cell growth, NCI panel, 48 h
[1] = test system: XF498
[2] = test system: SW-620
[3] = test system: 786-0
[4] = test system: KM12
[5] = test system: DMS-114
[6] = test system: M14
[7] = test system: NCI-H460
[8] = test system: OVCAR-8
[9] = test system: CCRF-CEM
[10] = test system: NCI-H23
[11] = test system: SF-268
[12] = test system: K562
[13] = test system: HCC 2998
[14] = test system: MOLT-4
[15] = test system: SNB-78
[16] = test system: COLO 205
[17] = test system: HOP-62
[18] = test system: UACC-257
[19] = test system: EKVX
[20] = test system: OVCAR-4
[21] = test system: OVCAR-3
[22] = test system: KM-20L2
[23] = test system: IGROV-1
[24] = test system: RPMI-8226
[25] = test system: SN12C
[26] = test system: ACHN
[27] = test system: LXFL 529
[28] = test system: CAKI-1
[29] = test system: UO-31
[30] = test system: HOP-92
[31] = test system: SK-MEL-28
[32] = test system: NCI-H522
[33] = test system: A549
[34] = test system: DLD-1
[35] = test system: HL-60
[36] = test system: SK-MEL-2
[37] = test system: TK-10
[38] = test system: Malme-3M
[39] = test system: M19-MEL
[40] = test system: LOX IMVI
[41] = test system: SNB-19
[42] = test system: SK-MEL-5
[43] = test system: RXF 393
[44] = test system: SNB-75
[45] = test system: DMS-273
[46] = test system: SK-OV-3
[47] = test system: UACC-62
[48] = test system: OVCAR-5
[49] = test system: HCT-15
[50] = test system: SF-295
[51] = test system: HT-29
[52] = test system: U-251
[53] = test system: HCT-116
[54] = test system: HOP-18
[55] = test system: SR
[56] = test system: SF-539
[57] = test system: NCI-H226
[58] = test system: A498

With `COc1cc2c(cc1OC)NC(=O)NC(Cc1ccc3c(c1)OCO3)CC2` (centres undefined) as the compound, how does the GI50 [1] read?
Its GI50 is > 100 µM (inactive).

And the GI50 [2]?
The GI50 was > 100 µM (inactive).

And the GI50 [3]?
Its GI50 is > 100 µM (inactive).

And the GI50 [4]?
The GI50 was > 100 µM (inactive).

And the GI50 [5]?
The GI50 was > 100 µM (inactive).

What about the GI50 [6] of the same compound?
Its GI50 is > 100 µM (inactive).

And the GI50 [7]?
The GI50 was > 100 µM (inactive).

And the GI50 [8]?
Its GI50 is > 100 µM (inactive).

And the GI50 [9]?
Its GI50 is > 100 µM (inactive).

And the GI50 [10]?
Its GI50 is > 100 µM (inactive).

And the GI50 [11]?
The GI50 was > 100 µM (inactive).

What about the GI50 [12] of the same compound?
The GI50 was > 100 µM (inactive).

And the GI50 [13]?
The GI50 was > 100 µM (inactive).

And the GI50 [14]?
The GI50 was > 100 µM (inactive).

What about the GI50 [15] of the same compound?
The GI50 was > 100 µM (inactive).

And the GI50 [16]?
Its GI50 is > 100 µM (inactive).

And the GI50 [17]?
Its GI50 is 51.5 µM (inactive).

What about the GI50 [18] of the same compound?
The GI50 was > 100 µM (inactive).

What about the GI50 [19] of the same compound?
The GI50 was > 100 µM (inactive).

And the GI50 [20]?
Its GI50 is > 100 µM (inactive).

What about the GI50 [21] of the same compound?
The GI50 was > 100 µM (inactive).

And the GI50 [22]?
Its GI50 is > 100 µM (inactive).

What about the GI50 [23] of the same compound?
Its GI50 is > 100 µM (inactive).

And the GI50 [24]?
Its GI50 is 83.9 µM (inactive).

And the GI50 [25]?
The GI50 was > 100 µM (inactive).

What about the GI50 [26] of the same compound?
Its GI50 is > 100 µM (inactive).

And the GI50 [27]?
Its GI50 is > 100 µM (inactive).

And the GI50 [28]?
Its GI50 is > 100 µM (inactive).

What about the GI50 [29] of the same compound?
Its GI50 is 76.9 µM (inactive).

And the GI50 [30]?
The GI50 was 30.2 µM (inactive).

And the GI50 [31]?
Its GI50 is > 100 µM (inactive).

What about the GI50 [32] of the same compound?
Its GI50 is 29 µM (inactive).

What about the GI50 [33] of the same compound?
The GI50 was > 100 µM (inactive).

What about the GI50 [34] of the same compound?
Its GI50 is > 100 µM (inactive).

And the GI50 [35]?
Its GI50 is > 100 µM (inactive).

And the GI50 [36]?
Its GI50 is > 100 µM (inactive).

What about the GI50 [37] of the same compound?
Its GI50 is > 100 µM (inactive).

And the GI50 [38]?
Its GI50 is > 100 µM (inactive).

And the GI50 [39]?
Its GI50 is > 100 µM (inactive).

And the GI50 [40]?
The GI50 was > 100 µM (inactive).

And the GI50 [41]?
The GI50 was > 100 µM (inactive).

What about the GI50 [42] of the same compound?
The GI50 was > 100 µM (inactive).

And the GI50 [43]?
Its GI50 is > 100 µM (inactive).

What about the GI50 [44] of the same compound?
The GI50 was 24 µM (inactive).

What about the GI50 [45] of the same compound?
The GI50 was > 100 µM (inactive).

What about the GI50 [46] of the same compound?
The GI50 was > 100 µM (inactive).

What about the GI50 [47] of the same compound?
The GI50 was > 100 µM (inactive).

What about the GI50 [48] of the same compound?
Its GI50 is > 100 µM (inactive).

And the GI50 [49]?
The GI50 was > 100 µM.

What about the GI50 [50] of the same compound?
Its GI50 is 84.5 µM (inactive).

Which results are given for `Clc1ccc(CCn2cncn2)cc1`?
GI50 [2]: > 100 µM (inactive); GI50 [3]: > 100 µM (inactive); GI50 [4]: > 100 µM (inactive); GI50 [5]: > 100 µM (inactive); GI50 [6]: > 100 µM (inactive); GI50 [7]: > 100 µM (inactive); GI50 [8]: > 100 µM (inactive); GI50 [9]: > 100 µM (inactive); GI50 [10]: > 100 µM (inactive); GI50 [51]: > 100 µM (inactive); GI50 [11]: > 100 µM (inactive); GI50 [12]: > 100 µM (inactive); GI50 [52]: > 100 µM (inactive); GI50 [53]: > 100 µM (inactive); GI50 [14]: > 100 µM (inactive); GI50 [15]: > 100 µM (inactive); GI50 [16]: > 100 µM (inactive); GI50 [17]: > 100 µM (inactive); GI50 [18]: > 100 µM (inactive); GI50 [54]: > 100 µM (inactive); GI50 [20]: > 100 µM (inactive); GI50 [21]: > 100 µM (inactive); GI50 [22]: > 100 µM (inactive); GI50 [23]: > 100 µM (inactive); GI50 [55]: > 100 µM (inactive); GI50 [24]: > 100 µM (inactive); GI50 [25]: > 100 µM (inactive); GI50 [56]: > 100 µM (inactive); GI50 [26]: > 100 µM (inactive); GI50 [27]: > 100 µM (inactive); GI50 [28]: > 100 µM (inactive); GI50 [29]: > 100 µM (inactive); GI50 [30]: > 100 µM (inactive); GI50 [31]: > 100 µM (inactive); GI50 [32]: > 100 µM (inactive); GI50 [57]: > 100 µM (inactive); GI50 [33]: > 100 µM (inactive); GI50 [34]: > 100 µM (inactive); GI50 [35]: > 100 µM (inactive); GI50 [36]: > 100 µM (inactive); GI50 [37]: > 100 µM (inactive); GI50 [38]: > 100 µM (inactive); GI50 [39]: > 100 µM (inactive); GI50 [40]: > 100 µM (inactive); GI50 [42]: > 100 µM (inactive); GI50 [43]: > 100 µM (inactive); GI50 [44]: 86.3 µM (inactive); GI50 [45]: > 100 µM (inactive); GI50 [58]: > 100 µM (inactive); GI50 [46]: > 100 µM (inactive); GI50 [47]: > 100 µM (inactive); GI50 [48]: > 100 µM (inactive); GI50 [49]: > 100 µM; GI50 [50]: > 100 µM (inactive)

From ChEMBL document CHEMBL1201862, “PubChem BioAssay data set” (2004)
